Experimental data: ChEMBL document CHEMBL1135461, “Conformations and receptor activity of desmopressin analogues, which contain gamma-turn mimetics or a psi[CH(2)O] isostere” (2002)

System: Rattus norvegicus
Experiment: In vivo antidiuretic activity in female Sprague-Dawley rats by intravenous administration using Vasopressin house standard (561 IU/mg)

| Structure (SMILES) | Agonist activity |
| --- | --- |
| CC1OC2CN(C1=O)[C@@H](CC(N)=O)C(=O)N[C@H](C(=O)N1CCC[C@H]1C(=O)N[C@H](CCCN=C(N)N)C(=O)NCC(N)=O)CSSCCC(=O)N[C@@H](Cc1ccc(O)cc1)C(=O)N[C@H]2Cc1ccccc1 (stereo in doubt; 6) | 0.0026 IU mg-1 |
| C[C@@H]1OC[C@H](Cc2ccccc2)NC(=O)[C@H](Cc2ccc(O)cc2)NC(=O)CCSSC[C@@H](C(=O)N2CCC[C@H]2C(=O)N[C@H](CCCN=C(N)N)C(=O)NCC(N)=O)NC(=O)[C@H](CC(N)=O)NC1=O | 0.56 IU mg-1 |
| N=C(N)NCCC[C@H](NC(=O)[C@@H]1CCCN1C(=O)[C@@H]1CSSC[C@H](N)C(=O)N[C@@H](Cc2ccc(O)cc2)C(=O)N[C@@H](Cc2ccccc2)C(=O)N[C@@H](CCC(N)=O)C(=O)N[C@@H](CC(N)=O)C(=O)N1)C(=O)NCC(N)=O [VASOPRESSIN] | 561 IU mg-1 |
| N=C(N)NCCC[C@@H](NC(=O)[C@@H]1CCCN1C(=O)[C@@H]1CSSCCC(=O)N[C@@H](Cc2ccc(O)cc2)C(=O)N[C@@H](Cc2ccccc2)C(=O)N[C@@H](CCC(N)=O)C(=O)N[C@@H](CC(N)=O)C(=O)N1)C(=O)NCC(N)=O [DESMOPRESSIN] | 1000 IU mg-1 |
| C[C@@H]1NC(=O)[C@H](Cc2ccccc2)NC(=O)[C@H](Cc2ccc(O)cc2)NC(=O)CCSSC[C@@H](C(=O)N2CCC[C@H]2C(=O)N[C@H](CCCN=C(N)N)C(=O)NCC(N)=O)NC(=O)[C@H](CC(N)=O)NC1=O | 645 IU mg-1 |
